Results: ChEMBL document CHEMBL4406798, “A novel finding of nalbuphine-6-glucuronide, an active opiate metabolite, possessing potent antinociceptive effects: Synthesis and biological evaluation” (2019)

Assays:
Rattus norvegicus [1] = experiment: Antinociceptive activity in Sprague-Dawley rat model of paw mechanical allodynia assessed as reduction in paw pressure by measuring AUC (0 to t) of paw pressure test at 1 mg/kg administered as intra-cisternal injection by Randall-Selitto test; format: functional, organism-based
Rattus norvegicus [2] = experiment: Antinociceptive activity in Sprague-Dawley rat model of paw mechanical allodynia assessed as duration above 50% maximum possible analgesia at 1 mg/kg administered as intra-cisternal injection by Randall-Selitto test; format: functional
Rattus norvegicus [3] = experiment: Antinociceptive activity in Sprague-Dawley rat model of paw mechanical allodynia assessed as maximum possible analgesia at 1 mg/kg administered as intra-cisternal injection by Randall-Selitto test relative to control; format: functional
Rattus norvegicus [4] = experiment: Antinociceptive activity in Sprague-Dawley rat model of thermal-induced nociception assessed as reduction in tail-flick response by measuring AUC (0 to t) of tail flick test at 1 mg/kg administered as intra-cisternal injection measured over 2.5 hrs by cold-ethanol tail-flick test; format: functional, organism-based; parameters: dose 1 mg/kg, time < 2.5 hr
Rattus norvegicus [5] = experiment: Antinociceptive activity in Sprague-Dawley rat model of thermal-induced nociception assessed as maximum possible analgesia at 1 mg/kg administered as intra-cisternal injection measured over 2.5 hrs by cold-ethanol tail-flick test relative to control; format: functional
Rattus norvegicus [6] = experiment: Antinociceptive activity in Sprague-Dawley rat model of paw mechanical allodynia assessed as reduction in paw pressure by measuring AUC (0 to t) of paw pressure test at 50 mg/kg, ip by Randall-Selitto test; format: functional, organism-based
Rattus norvegicus [7] = experiment: Antinociceptive activity in Sprague-Dawley rat model of paw mechanical allodynia assessed as maximum possible analgesia at 50 mg/kg, ip by Randall-Selitto test relative to control; format: functional
Rattus norvegicus [8] = experiment: Antinociceptive activity in Sprague-Dawley rat model of thermal-induced nociception assessed as reduction in tail-flick response by measuring AUC (0 to t) of tail flick test at 50 mg/kg, ip measured over 2.5 hrs by cold-ethanol tail-flick test; format: functional, organism-based; parameters: time < 2.5 hr, dose 50 mg/kg
Rattus norvegicus [9] = experiment: Antinociceptive activity in Sprague-Dawley rat model of thermal-induced nociception assessed as maximum possible analgesia at 50 mg/kg, ip measured over 2.5 hrs by cold-ethanol tail-flick test relative to control; format: functional
Rattus norvegicus [10] = species on record: Rattus norvegicus; experiment: Ratio of AUC for test compound to AUC for nalbuphine for antinociceptive activity in Sprague-Dawley rat model by Randall-Selitto test; format: functional
Rattus norvegicus [11] = species on record: Rattus norvegicus; experiment: Ratio of AUC for test compound to AUC for nalbuphine for antinociceptive activity in Sprague-Dawley rat model by cold-ethanol tail-flick test; format: functional
Rattus norvegicus [12] = experiment: Antinociceptive activity in Sprague-Dawley rat model of thermal-induced nociception assessed as duration above 50% maximum possible analgesia at 1 mg/kg administered as intra-cisternal injection measured over 2.5 hrs by cold-ethanol tail-flick test; format: functional
Rattus norvegicus [13] = experiment: Antinociceptive activity in Sprague-Dawley rat model of paw mechanical allodynia assessed as duration above 50% maximum possible analgesia at 50 mg/kg, ip by Randall-Selitto test; format: functional
Rattus norvegicus [14] = experiment: Antinociceptive activity in Sprague-Dawley rat model of thermal-induced nociception assessed as duration above 50% maximum possible analgesia at 50 mg/kg, ip measured over 2.5 hrs by cold-ethanol tail-flick test; format: functional

| Structure (SMILES) | AUC (Rattus norvegicus [1]) [g·h] | Time (Rattus norvegicus [2]) [h] | Activity (Rattus norvegicus [3]) [%] | AUC (Rattus norvegicus [4]) [hr.sec] | Activity (Rattus norvegicus [5]) [%] | AUC (Rattus norvegicus [6]) [g·h] | Activity (Rattus norvegicus [7]) [%] | AUC (Rattus norvegicus [8]) [hr.sec] | Activity (Rattus norvegicus [9]) [%] | Ratio (Rattus norvegicus [10]) | Ratio (Rattus norvegicus [11]) | Time (Rattus norvegicus [12]) [h] | Time (Rattus norvegicus [13]) [h] | Time (Rattus norvegicus [14]) [h] |
| --- | --- | --- | --- | --- | --- | --- | --- | --- | --- | --- | --- | --- | --- | --- |
| O=C(O)[C@H]1O[C@@H](O[C@H]2CC[C@@]3(O)[C@H]4Cc5ccc(O)c6c5[C@@]3(CCN4CC3CCC3)[C@H]2O6)[C@H](O)[C@@H](O)[C@@H]1O | 510 | 91 | 95.1 | 40.3 | 96.5 | 158 | 29.6 | 5.4 | 22.7 | 2.8 | 3.5 |  |  |  |
| O=C(O)[C@H]1O[C@@H](Oc2ccc3c4c2O[C@H]2[C@@H](O)CC[C@@]5(O)[C@@H](C3)N(CC3CCC3)CC[C@]425)[C@H](O)[C@@H](O)[C@@H]1O | 23.5 |  | 7.3 | 5.4 | 22.3 | 73.4 | 17.7 | 5.8 | 19.3 |  |  | 1.36 |  |  |
| Oc1ccc2c3c1O[C@H]1[C@@H](O)CC[C@@]4(O)[C@@H](C2)N(CC2CCC2)CC[C@]314 [NALBUPHINE] | 176 | 0.13 | 48 | 11.3 | 38.4 | 169 | 37.9 | 16.9 | 43.6 |  |  | 0.07 | 0.1 | 0.15 |
